Reference: US8680290B2, “Isoxazoline derivatives and their use as herbicides” (Syngenta Limited, priority 2004, dated 2014)

How the values were obtained:
[1] = system: Monocotyledonous and dicotyledonous test plants; assay: Example B1 herbicidal action, application post-emergence (Table B1a); type: in vivo; conditions: 250 g/ha, evaluated after 3 weeks, scale 0-10
How it was run: (§1)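 Visual damage rating, 10 = plant dead and 0 = unharmed, taken at 3 weeks for post-emergence and 4 weeks for pre-emergence treatment. Application by spray of formulated aqueous solution either immediately after sowing or at 8–9 days' growth, with mono- and dicot plants kept in a greenhouse.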

[2] = system: Monocotyledonous and dicotyledonous test plants; assay: Example B1 herbicidal action, application pre-emergence (Table B1b); type: in vivo; conditions: 250 g/ha, evaluated after 4 weeks
How it was run: as §1

[3] = system: Monocotyledonous and dicotyledonous test plants; assay: Example B2 herbicidal action, application post-emergence, 96-cell seed trays (Table B2a); type: in vivo; conditions: 1000 g/ha
Protocol: Monocotyledonous and dicotyledonous test plants were sown in sterilised standard soil in seed trays each having 96 cells. After one day (pre-emergence) or after 8 to 9 days cultivation (post-emergence) under controlled conditions in a climatic chamber (cultivation at 17/23° C.; 13 hours light; 50-60% humidity; after application at 19/24° C.), the plants were treated with an aqueous spray solution of 1000 mg/l of the active ingredient used (rate of application: […]; incl. 10% DMSO as solvent). The plants were grown on in the climatic chamber until the test was evaluated (10 total damage to plant, 0=no damage to plant) after 9 or 13 days.

[4] = system: Monocotyledonous and dicotyledonous test plants; assay: Example B2 herbicidal action, application pre-emergence, 96-cell seed trays (Table B2b); type: in vivo; conditions: 1000 g/ha
How it was run: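 Mono- and dicot plants in sterilised soil, 96-cell trays, sprayed 1 day after sowing (pre-emergence) or after 8–9 days growth (post-emergence) with aqueous 1000 mg/l active ingredient, 10% DMSO; climatic chamber 17/23° C, 13 h light. Damage scored 0–10 after 9 or 13 days.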

maize [5] = assay: Example E1 pre-emergent safening test on maize (Tables E1 Marista, E2 Lorenzo); type: in vivo; conditions: after 14 days
Protocol: The test plants were sown in seed trays under greenhouse conditions. A standard earth was used as the culture substrate. In a pre-emergent stage, the herbicides were applied both by themselves and in a mixture with safeners to the soil surface. The application was carried out with an aqueous suspension of the test substances, prepared from a 25% wettable powder (Example F3, b according to WO 97/34485) or from a suspension concentrate (Example F8 according to WO 97/34485), to achieve a field equivalent of 200 l/ha. The tests were evaluated after 14 days (100%=plants completely dead; 0%=no phytotoxic action on the plants).

maize [6] = assay: Example F1 post-emergent safening test on maize (Table F1, Marista 11f); type: in vivo; conditions: post-emergent (GS 11), after 28 days
Protocol: The test plants were sown in containers under glasshouse conditions. A standard earth was used as the culture substrate. In a maize growth stage of one leaf (GS 11), the herbicides were applied both by themselves and in a mixture with safeners to the soil and leaf surface. The application was carried out with an aqueous suspension of the test substances, prepared from a 25% wettable powder (Example F3,b according to WO 97/34485) or a suspension concentrate (Example F8 according to WO 97/34485), to achieve a field equivalent of 200 l/ha. The tests were evaluated after 28 days (100%=plants completely dead; 0%=no phytotoxic action on the plants).

| Compound | herbicidal damage rating, Abutilon [1] | herbicidal damage rating, Amaranthus [1] | herbicidal damage rating, Digitaria [1] | herbicidal damage rating, Panicum [1] | herbicidal damage rating, Setaria [1] | herbicidal damage rating, Sida [1] | herbicidal action (damage rating 0-10), Amaranthus [2] | herbicidal action (damage rating 0-10), Digitaria [2] | herbicidal action (damage rating 0-10), Panicum [2] | herbicidal action (damage rating 0-10), Setaria [2] | herbicidal action (damage rating 0-10), Sida [2] | herbicidal action (damage rating 0-10), Agrostis [3] | herbicidal action (damage rating 0-10), Amaranthus [3] | herbicidal action (damage rating 0-10), Poa [3] | herbicidal action (damage rating 0-10), Setaria [3] | herbicidal action (damage rating 0-10), Agrostis [4] | herbicidal action (damage rating 0-10), Digitaria [4] | herbicidal action (damage rating 0-10), Poa [4] | herbicidal action (damage rating 0-10), Setaria [4] | other results |
| --- | --- | --- | --- | --- | --- | --- | --- | --- | --- | --- | --- | --- | --- | --- | --- | --- | --- | --- | --- | --- |
| CC1(C)CC([S+]([O-])C(Cl)c2c(F)cccc2Cl)=NO1 (single isomer, unassigned) [1.34] | 3 | 5 | 5 | 8 | 6 | 3 | 9 | 9 | 10 | 10 | 7 | 8 | 5 | 8 | 8 |  |  |  |  |  |
| CC1(C)CC(S(=O)(=O)C(F)c2c(F)cccc2F)=NO1 (centres unmarked) [1.06] |  |  |  |  |  |  | 10 | 5 | 10 | 9 | 7 | 8 | 8 | 8 | 7 | 10 | 10 | 10 | 10 |  |
| CC1(C)CC(S(=O)(=O)C(Cl)c2c(F)cccc2Cl)=NO1 (centres unmarked) [1.32] |  |  |  |  |  |  |  |  |  |  |  | 8 | 6 | 8 | 6 |  |  |  |  |  |
| Cn1nc(C(F)(F)F)c(C(Cl)S(=O)(=O)C2=NOC(C)(C)C2)c1OCC(F)(F)F (centres unmarked) [2.04] | 7 | 4 | 4 | 8 | 6 | 6 | 10 | 10 | 10 | 10 | 8 |  |  |  |  |  |  |  |  | phytotoxic action on maize (Lorenzo) (maize [5]; herbicide alone 100 g/ha): 2.5%; phytotoxic action on maize (Marista) (maize [5]; herbicide alone 100 g/ha): 10%; phytotoxic action on maize (Lorenzo) (maize [5]; herbicide alone 200 g/ha): 17.5%; phytotoxic action on maize (Marista) (maize [5]; herbicide alone 200 g/ha): 15% |
| Cn1nc(C(F)(F)F)c(C(Br)S(=O)(=O)C2=NOC(C)(C)C2)c1OCC(F)(F)F (centres unmarked) [2.10] | 6 | 8 | 6 | 7 | 5 | 4 | 10 | 10 | 10 | 10 | 8 |  |  |  |  |  |  |  |  | phytotoxic action on maize (Marista 11f) (maize [6]; herbicide alone 37.5 g/ha): 20%; phytotoxic action on maize (Marista 11f) (maize [6]; herbicide alone 75 g/ha): 50%; phytotoxic action on maize (Marista 11f) (maize [6]; herbicide alone 150 g/ha, 100%=plants completely dead): 75% |
| CC1(C)CC(S(=O)(=O)C(Cl)c2c(F)cccc2F)=NO1 (centres unmarked) [Compound No. 1.07, 3-[chloro-(2,6-difluoro-phenyl)-methanesulfonyl]-5,5-dimethyl-4,5-dihydroisoxazole] | 5 | 3 | 5 | 7 | 7 | 2 | 8 | 10 | 10 | 10 | 7 | 8 | 7 | 8 | 7 | 10 | 10 | 10 | 10 |  |
| Cc1cccc(C(Cl)(Cl)S(=O)(=O)C2=NOC(C)(C)C2)c1 [Compound No. 1.31, 3-[dichloro-m-tolyl-methanesulfonyl]-5,5-dimethyl-4,5-dihydroisoxazole] | 3 |  | 1 | 7 | 0 | 7 | 0 | 9 | 9 | 7 | 0 |  |  |  |  | 9 | 9 | 9 | 10 | melting point: 89 °C |
